Reference: paper PMC5698418 (Nature Communications, 2017)

Key:
HDAC8 = molecular target: T1, HDAC8 (Homo sapiens, UniProt Q9BY41); test: Biochemical HDAC assay (BPS Bioscience), HDAC8; conditions: 25 µM
T1 construct: purchased BPS Bioscience (San Diego, CA), contract assay service

[1] = system: AMPAR currents in primary cortical neurons; test: Single-cell electrophysiology of AMPA-mediated mEPSCs; assay type: cell-based, mouse
Experimental: Primary cortical neurons cultured on glass coverslips were recorded at DIV15 in voltage clamp mode. The external solution was kept at 25 °C and contained 120 mM NaCl, 2 mM KCl, 1 mM MgCl2, 1.5 mM CaCl2, 10 mM 4-(2-hydroxyethyl)-1-piperazineethane-sulfonic acid (HEPES) and 15 mM glucose. […]. Patch recording pipettes (3–6 MΩ) were filled with an internal solution (pH 7.2). The internal solution contained 120 mM K-gluconate, 6 mM NaCl, 1 mM MgCl2, 10 mM HEPES, and 0.2 mM ethylene glycol tetraacetic acid. Data were acquired using an HEKA EPC-10 patch-clamp amplifier interfaced with PatchMaster software and analyzed using FitMaster software (HEKA Elektronik, Holliston, MA) and MiniAnalysis (Synaptosoft, Fort Lee, NJ). Miniature EPSCs were recorded for a minimum of 2 min at a holding potential of −80 mV. Analysis of synaptic event data was performed using MiniAnalysis software with event detection threshold set at maximum root mean squared noise level (5 pA). Recordings of synaptic events were assessed for frequency (Hz) and mean amplitude (pA).

T1 sequence (Q9BY41 whole entry): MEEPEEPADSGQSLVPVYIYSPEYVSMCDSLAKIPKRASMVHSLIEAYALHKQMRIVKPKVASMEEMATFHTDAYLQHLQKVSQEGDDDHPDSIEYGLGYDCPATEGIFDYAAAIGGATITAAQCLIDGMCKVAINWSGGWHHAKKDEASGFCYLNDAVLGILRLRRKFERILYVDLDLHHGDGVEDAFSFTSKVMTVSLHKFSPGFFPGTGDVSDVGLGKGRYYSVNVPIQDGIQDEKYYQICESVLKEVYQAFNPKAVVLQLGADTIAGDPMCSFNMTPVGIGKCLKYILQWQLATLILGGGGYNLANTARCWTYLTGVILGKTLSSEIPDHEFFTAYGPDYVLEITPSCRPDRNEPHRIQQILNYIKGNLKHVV

`O=C(Nc1cccc(Br)c1)c1cccc(S(=O)(=O)N2CCCCCC2)c1` [AK-7] was tested. Which “inhibitory activity toward HDAC8” value (HDAC8) did it give?
The value was “failed to show any inhibitory activity”.

What about the mEPSC amplitude ([1]; AK-7 and BDNF 6 h vs BDNF alone, DIV15) of the same compound?
Its mEPSC amplitude is “significant decrease in the amplitude of mEPSCs”.

What about the mEPSC frequency ([1]; untreated, BDNF alone, AK-7 plus BDNF) of the same compound?
The mEPSC frequency was “all similar”.
